Patent publication US20210308089A1, “METHODS OF TREATING AND/OR PREVENTING VIRAL INFECTIONS AND/OR DISEASES CAUSED BY VIRUSES IN A SUBJECT IN NEED THEREOF” (priority 2020, published 2021)

System: patients of the REDUCE-IT and earlier EPA placebo-controlled trials
Format: in vivo, human
Conditions: R-I

**Q.** Which “Risk Ratio (95% CI): ALP shift: normal to high (Day 1080)” value does the source give for CC/C=C\C/C=C\C/C=C\C/C=C\C/C=C\CCCC(=O)OCC [icosapent ethyl, eicosapentaenoic acid ethyl ester] here?
**A.** 0.395 (0.280 to 0.528) 4

**Q.** And the “Risk Ratio (95% CI): ALP shift: normal to high (Day 1440)” value?
**A.** 0.406 (0.287 to 0.575) 3

**Q.** And the “Risk Ratio (95% CI): ALP shift: normal to high (Day 1800)” value?
**A.** 0.439 (0.280 to 0.688) 3

**Q.** And the “Risk Ratio (95% CI): ALP shift: normal to low (Day 120)” value?
**A.** 3.341 (1.343 to 8.311) −4

**Q.** What about the “Risk Ratio (95% CI): ALP shift: normal to low (Day 360)” value of the same compound?
**A.** 2.394 (0.994 to 5.767) −3

**Q.** And the “Risk Ratio (95% CI): ALP shift: normal to low (Day 720)” value?
**A.** 2.783 (1.178 to 6.572) −4

**Q.** And the “Risk Ratio (95% CI): ALP shift: normal to low (Day 1080)” value?
**A.** 1.938 (0.831 to 4.522) −3

**Q.** What about the “Risk Ratio (95% CI): ALP shift: normal to low (Day 1440)” value of the same compound?
**A.** 1.199 (0.562 to 2.556) −1

**Q.** What about the “Risk Ratio (95% CI): Albumin high (Day 120)” value of the same compound?
**A.** 2.263 (1.388 to 3.689) −3

**Q.** And the “Risk Ratio (95% CI): Albumin high (Day 360)” value?
**A.** 1.901 (1.217 to 2.969) −3

**Q.** What about the “Risk Ratio (95% CI): Albumin high (Day 720)” value of the same compound?
**A.** 1.365 (0.975 to 1.911) −2

**Q.** And the “Risk Ratio (95% CI): Albumin high (Day 1080)” value?
**A.** 1.449 (0.993 to 2.115) −2

**Q.** What about the “Risk Ratio (95% CI): Albumin high (Day 1440)” value of the same compound?
**A.** 1.540 (1.001 to 2.369) −2

**Q.** And the “Risk Ratio (95% CI): Albumin shift: normal to high (Day 120)” value?
**A.** 3.055 (1.709 to 5.461) −4

**Q.** And the “Risk Ratio (95% CI): Albumin shift: normal to high (Day 360)” value?
**A.** 2.364 (1.388 to 4.027) −3

**Q.** And the “Risk Ratio (95% CI): Albumin shift: normal to high (Day 720)” value?
**A.** 1.475 (1.028 to 2.116) −2

**Q.** What about the “Risk Ratio (95% CI): Albumin shift: normal to high (Day 1080)” value of the same compound?
**A.** 1.257 (0.848 to 1.864) −2

**Q.** What about the “Risk Ratio (95% CI): Albumin shift: normal to high (Day 1440)” value of the same compound?
**A.** 1.531 (0.974 to 2.408) −2

**Q.** What about the “Risk Ratio (95% CI): Bilirubin >1x ULN to 2x ULN” value of the same compound?
**A.** 3.157 (2.392 to 4.168) −4

**Q.** And the “Risk Ratio (95% CI): Bilirubin high (Day 120)” value?
**A.** 4.288 (2.849 to 6.454) −4

**Q.** And the “Risk Ratio (95% CI): Bilirubin high (Day 360)” value?
**A.** 3.263 (2.203 to 4.832) −4

**Q.** What about the “Risk Ratio (95% CI): Bilirubin high (Day 720)” value of the same compound?
**A.** 5.052 (3.174 to 8.039) −5

**Q.** What about the “Risk Ratio (95% CI): Bilirubin high (Day 1080)” value of the same compound?
**A.** 2.430 (1.683 to 3.508) −3

**Q.** What about the “Risk Ratio (95% CI): Bilirubin high (Day 1440)” value of the same compound?
**A.** 3.543 (2.243 to 5.596) −4

**Q.** What about the “Risk Ratio (95% CI): Bilirubin high (Day 1800)” value of the same compound?
**A.** 2.670 (1.569 to 4.545) −4

**Q.** What about the “Risk Ratio (95% CI): Bilirubin shift: normal to high (Day 120)” value of the same compound?
**A.** 5.106 (2.754 to 9.467) −5

**Q.** What about the “Risk Ratio (95% CI): Bilirubin shift: normal to high (Day 360)” value of the same compound?
**A.** 5.431 (2.773 to 10.636) −5

**Q.** What about the “Risk Ratio (95% CI): Bilirubin shift: normal to high (Day 720)” value of the same compound?
**A.** 4.803 (2.516 to 9.168) −4

**Q.** And the “Risk Ratio (95% CI): Bilirubin shift: normal to high (Day 1080)” value?
**A.** 2.235 (1.374 to 3.636) −3

**Q.** And the “Risk Ratio (95% CI): Bilirubin shift: normal to high (Day 1440)” value?
**A.** 5.445 (2.687 to 11.034) −5

**Q.** And the “Risk Ratio (95% CI): Bilirubin shift: normal to high (Day 1800)” value?
**A.** 2.556 (1.242 to 5.259) −4

**Q.** What about the “Risk Ratio (95% CI): Calcium high (Day 120)” value of the same compound?
**A.** 0.799 (0.517 to 1.236) 2

**Q.** And the “Risk Ratio (95% CI): Calcium high (Day 360)” value?
**A.** 0.915 (0.593 to 1.412) 1

**Q.** What about the “Risk Ratio (95% CI): Calcium high (Day 720)” value of the same compound?
**A.** 0.767 (0.491 to 1.200) 2

**Q.** And the “Risk Ratio (95% CI): Calcium low (Day 120)” value?
**A.** 1.399 (0.444 to 4.404) −2

**Q.** And the “Risk Ratio (95% CI): Calcium low (Day 360)” value?
**A.** 9.856 (1.262 to 76.953) −5

**Q.** What about the “Risk Ratio (95% CI): Calcium low (Day 720)” value of the same compound?
**A.** 2.911 (0.789 to 10.744) −4

**Q.** What about the “Risk Ratio (95% CI): DBP High (≥100 mmHg)” value of the same compound?
**A.** 1.121 (0.931 to 1.350) −1

**Q.** And the “Risk Ratio (95% CI): DBP High and Rose ≥10 mmHg” value?
**A.** 1.092 (0.888 to 1.344) −1

**Q.** What about the “Risk Ratio (95% CI): DBP Low (≤50 mmHG)” value of the same compound?
**A.** 1.136 (0.732 to 1.763) −1

**Q.** And the “Risk Ratio (95% CI): DBP Low and dropped ≥10 mmHg” value?
**A.** 1.030 (0.644 to 1.648) −1

**Q.** What about the “Risk Ratio (95% CI): DBP dropped ≥10 mmHG” value of the same compound?
**A.** 1.087 (1.028 to 1.150) −1

**Q.** And the “Risk Ratio (95% CI): DBP rose ≥10 mmHg” value?
**A.** 0.983 (0.927 to 1.041) 1

**Q.** And the “Risk Ratio (95% CI): High platelets (Day 720)” value?
**A.** 1.503 (1.007 to 2.242) −2

**Q.** What about the “Risk Ratio (95% CI): Low platelets (Day 360)” value of the same compound?
**A.** 0.366 (0.253 to 0.530) 4

**Q.** And the “Risk Ratio (95% CI): Low platelets (Day 720)” value?
**A.** 0.799 (0.608 to 1.051) 2

**Q.** What about the “Risk Ratio (95% CI): Low platelets (Day 1080)” value of the same compound?
**A.** 0.688 (0.512 to 0.925) 2

**Q.** And the “Risk Ratio (95% CI): Platelet count: PCS Low <100 × 10^3/uL” value?
**A.** 0.442 (0.258 to 0.758) 3

**Q.** What about the “Risk Ratio (95% CI): SBP High (≥160 mmHg)” value of the same compound?
**A.** 0.912 (0.833 to 1.000) 1

**Q.** And the “Risk Ratio (95% CI): SBP High and rose ≥20 mmHg” value?
**A.** 0.908 (0.805 to 1.023) 1

**Q.** What about the “Risk Ratio (95% CI): SBP Low (≤90 mmHg)” value of the same compound?
**A.** 1.819 (1.093 to 3.055) −3

**Q.** What about the “Risk Ratio (95% CI): SBP dropped ≥20 mmHg” value of the same compound?
**A.** 1.117 (1.033 to 1.208) −1

**Q.** And the “Risk Ratio (95% CI): SBP low and dropped ≥20 mmHg” value?
**A.** 1.422 (0.792 to 2.553) −2

**Q.** And the “Risk Ratio (95% CI): SBP rose ≥20 mmHg” value?
**A.** 0.976 (0.912 to 1.045) 1

**Q.** What about the “Risk Ratio (95% CI): Urate high (Day 120)” value of the same compound?
**A.** 1.398 (1.246 to 1.568) −2

**Q.** What about the “Risk Ratio (95% CI): Urate high (Day 360)” value of the same compound?
**A.** 1.350 (1.197 to 1.523) −2

**Q.** What about the “Risk Ratio (95% CI): Urate high (Day 720)” value of the same compound?
**A.** 1.323 (1.162 to 1.506) −2

**Q.** And the “Risk Ratio (95% CI): Urate high (Day 1080)” value?
**A.** 1.102 (0.961 to 1.263) −1

**Q.** And the “Risk Ratio (95% CI): Urate high (Day 1440)” value?
**A.** 1.109 (0.956 to 1.286) −1

**Q.** And the “Risk Ratio (95% CI): Urate high (Day 1800)” value?
**A.** 1.084 (0.883 to 1.331) −1

**Q.** And the “Risk Ratio (95% CI): Urate shift: normal to high (Day 120)” value?
**A.** 1.689 (1.369 to 2.084) −3

**Q.** What about the “Risk Ratio (95% CI): Urate shift: normal to high (Day 360)” value of the same compound?
**A.** 1.674 (1.363 to 2.056) −3

**Q.** And the “Risk Ratio (95% CI): Urate shift: normal to high (Day 720)” value?
**A.** 1.513 (1.227 to 1.865) −2

**Q.** And the “Risk Ratio (95% CI): Urate shift: normal to high (Day 1080)” value?
**A.** 1.118 (0.910 to 1.374) −1

**Q.** And the “Risk Ratio (95% CI): Urate shift: normal to high (Day 1440)” value?
**A.** 1.079 (0.879 to 1.324) −1

**Q.** What about the “Risk Ratio (95% CI): Urate shift: normal to high (Day 1800)” value of the same compound?
**A.** 1.029 (0.782 to 1.355) −1

**Q.** What about the “Risk Ratio (95% CI): Urate shift: normal to low (Day 120)” value of the same compound?
**A.** 1.654 (0.396 to 6.915) −2

**Q.** What about the “Risk Ratio (95% CI): Urate shift: normal to low (Day 360)” value of the same compound?
**A.** 0.733 (0.255 to 2.110) 2

**Q.** And the “Risk Ratio (95% CI): Urate shift: normal to low (Day 720)” value?
**A.** 0.361 (0.096 to 1.360) 4

**Q.** And the “Risk Ratio (95% CI): Urate shift: normal to low (Day 1080)” value?
**A.** 0.474 (0.119 to 1.893) 3
